Columns and labels:
Assay type in all cases: in vivo
BTBR and B6 mice [1] = test: Spontaneous alternation behavior (SAB), Y maze; conditions: i.p., ST-2223 2.5, 5 and 10 mg/kg, MEM 5 mg/kg, ARP 1 mg/kg
Method: (§1) The drugs tested included ST-2223 [N-(4-(4-(2-methoxyphenyl)piperazin-1-yl)butyl)-6-(3-(piperidin-1-yl)propoxy)-2-naphthamide] that was designed and synthesized in the Institute of Pharmaceutical and Medicinal Chemistry, Heinrich Heine University Düsseldorf, Germany, and in accordance with previously described methodologies (Supplementary Materials). Aripiprazole (ARP) (1 mg/kg, i.p.) and memantine (MEM, 5 mg/kg, i.p.), as reference drugs, were purchased from Sigma-Aldrich (St. Louis, MO, USA). The CNS-penetrant H3R agonist (R)-α-methylhistamine (RAM, 10 mg/kg, i.p.) was purchased from Sigma-Aldrich, St. Louis, MO, USA. T. Protease and the phosphatase inhibitor cocktail were procured from Thermo Scientific, USA. The assay kit for reduced glutathione (GSH) was obtained from Sigma-Aldrich (St. Louis, MO, USA). The lipid peroxidation assay kit for estimation of malondialdehyde (MDA) was purchased from North West Life Science (Vancouver, WA, USA). The assay kits for superoxide dismutase (SOD) and catalase (CAT) were purchased from Cayman Chemical (Ann Arbor, MI, USA). The drugs were prepared daily using 1% dimethyl sulfoxide (DMSO) in 0.9% saline, for intraperitoneal (i.p.) administration at a volume of 10 mL/kg of body weight. Vehicle treatment consisted of 1% DMSO in 0.9% normal saline. All drugs were i.p. administered 30 min before the behavioral test. The doses of these drugs were chosen based on previous reports. Neurobehavioral assessment was performed blindly with respect to experimental group and drug administration.
The SAB test is based on the exploratory strategy of rodents to explore a new environment. In examining repetitive behaviors, the Y maze test took advantage of the rodents’ natural tendency to spontaneously alternate or choose a different arm of the maze instead of the one they visited on their previous entry (i.e., least recently visited arm). A decrease in the percentage alternation can also be attributed to same arm repeated visits. Spontaneous alternation behavior was measured on a Y maze apparatus, as previously described, with slight modifications. The Y maze composed of three arms (30 cm × 6 cm × 15 cm), where the arms were labeled with letters: A, B, or C. The test mouse was placed in the center of the maze and was allowed to freely explore the maze for 8 min. The number of entries into each arm and the total number of entries were recorded by the observer. A spontaneous alternation was defined as successive entry into three arms on an overlapping triplet set. Percentage spontaneous alternation was calculated as the number of spontaneous alternations (actual alternations) over the total number of entries (possible alternations). Two arm entries were subtracted from the denominator because an alternation required at least 3 entries. The apparatus was cleaned with 70% alcohol solution after each mouse was tested. (1) Percentage spontaneous alternations=Total alternations/(Total arm entries − 2) ×100

BTBR and B6 mice [2] = test: Marble burying task (MBT); conditions: MEM 5 mg/kg; for percentage of marbles buried vs vehicle-treated BTBR mice: i.p. 30-45 min before, ST-2223 2.5, 5 and 10 mg/kg, ARP 1 mg/kg; for percentage of marbles buried vs vehicle-treated B6 mice: i.p., ST-2223 2.5, 5, 10 mg/kg
Method: as §1
The MBT is used for testing repetitive and compulsive behaviors as it accurately reflects repetitive digging behavior [95, 96]. The test was performed as described previously, with slight modifications. Briefly, cages (26 cm × 48 cm × 20 cm) were filled with fresh, unscented mouse bedding material to a depth of 5 cm, on top of which 20 marbles were placed in 4 rows of 5 marbles each (15 mm diameter). Before placing the marbles, the bedding surface was leveled by placing another cage of the same size onto the surface of the bedding and then each mouse was individually added for 10 min habituation. After habituation, the mouse was removed, and the marbles were carefully overlaid. The same mouse was then returned to its designated test cage and allowed to explore for 30 min. The total number of marbles buried (>50% marble covered by the bedding material) was determined at the end of the session.

glutathione (GSH) = test: Quantification of glutathione (GSH) in brain parts of treated BTBR mice; conditions: i.p., ST-2223 5 mg/kg, RAM 10 mg/kg, ARP 1 mg/kg, MEM 5 mg/kg, mean ± SEM; for GSH, Striatum: n = 3-6, BTBR vehicle 583 ± 68.8; for GSH, Cerebellum: n = 3-6, BTBR vehicle 827 ± 93.3; for GSH, Prefrontal Cortex: n = 3-6, BTBR vehicle 835 ± 97.4; for GSH, Hippocampus: n = 3-6, BTBR vehicle 1096 ± 16.7
Method: At the end of the behavioral assessments, the animals were sacrificed following previously published protocols. Animals were anesthetized with pentobarbital (40 mg/kg, body weight, i.p.), sacrificed, and perfused via intracardial infusion to wash out the blood, using 1× PBS (0.01 M phosphate buffer, 0.0027 M potassium chloride and 0.137 M sodium chloride) at pH 7.4. […] The brains were then quickly removed and placed on an ice plate. The cerebellum, hippocampus, prefrontal and striatum were excised from the brain and snap-frozen in liquid nitrogen for further use in biochemical assessments. On the day of the biochemical tests, the tissues were homogenized using radioimmunoprecipitation assay (RIPA) buffer (50 mM Tris HCl, pH 7.4, 140 mM NaCl, 1 mM EDTA, 0.5% Triton X-100 and 0.5% sodium deoxycholate) supplemented with protease and phosphatase inhibitors. Then, the homogenates were centrifuged at 14,000 rpm for 30 min (4 °C), and the supernatant was used for evaluation of lipid peroxidation, glutathione, and antioxidant enzymes using spectrophotometric measurements and enzyme-linked immunosorbent assays (ELISA)..
Levels of GSH in tissue homogenates were carried out according to the manufacturer’s instructions of the commercially available Sigma’s glutathione assay kit (Sigma-Aldrich Chemie GmbH, Steinheim), and as previously described. In brief, samples were first deproteinized with 5% 5-sulfosalicylic acid solution, centrifuged to remove the precipitated protein, and then the supernatant was used to estimate GSH. Ten microliter samples or standards were incubated with 150 μL of working mixture (assay buffer + 5,5′-dithiobis (2-nitrobenzoic acid) + GSH reductase) in 96-well plates for 5 min. Diluted NADPH solution (50 µL) was added into each well and mixed thoroughly. Absorbance was measured at 412 nm with the kinetics for 5 min by using the microplate reader. Results are expressed as µM GSH/mg protein.

Structure (SMILES)	percentage of spontaneous alternation vs vehicle-treated B6 mice (BTBR and B6 mice [1])	percentage of spontaneous alternation vs vehicle-treated BTBR mice (BTBR and B6 mice [1])	percentage of marbles buried vs vehicle-treated BTBR mice (BTBR and B6 mice [2])	GSH, Striatum (glutathione (GSH))	GSH, Cerebellum (glutathione (GSH))	GSH, Prefrontal Cortex (glutathione (GSH))	GSH, Hippocampus (glutathione (GSH))	percentage of marbles buried vs vehicle-treated B6 mice (BTBR and B6 mice [2])
O=C1CCc2ccc(OCCCCN3CCN(c4cccc(Cl)c4Cl)CC3)cc2N1 [ARP, aripiprazole]	did not alter	failed to significantly mitigate	significantly reduced	1139 ± 74.6 µM GSH/mg protein	1030 ± 36.2 µM GSH/mg protein	935 ± 98.0 µM GSH/mg protein	611.5 ± 62.6 µM GSH/mg protein	–
CC12CC3CC(C)(C1)CC(N)(C3)C2 [MEM, memantine]	did not alter	significantly increased	significantly reduced	915.5 ± 97.3 µM GSH/mg protein	877 ± 55.7 µM GSH/mg protein	719.3 ± 50.0 µM GSH/mg protein	–	not significant
COc1ccccc1N1CCN(CCCCNC(=O)c2ccc3cc(OCCCN4CCCCC4)ccc3c2)CC1 [ST-2223, N-(4-(4-(2-methoxyphenyl)piperazin-1-yl)butyl)-6-(3-(piperidin-1-yl)propoxy)-2-naphthamide]	did not alter	significantly increased	significantly decreased	1007 ± 93.1 µM GSH/mg protein	1108 ± 41.1 µM GSH/mg protein	1212 ± 302.6 µM GSH/mg protein	916 ± 4.2 µM GSH/mg protein	did not alter

From paper PMC7920280, “The Multi-Targeting Ligand ST-2223 with Histamine H3 Receptor and Dopamine D2/D3 Receptor Antagonist Properties Mitigates Autism-Like Repetitive Behaviors and Brain Oxidative Stress in Mice” (International Journal of Molecular Sciences, 2021)
